Legend:
[1] = system: HepG2 cells; test: Content of ALT and AST in culture solution of alcohol-treated HepG2 cells; assay type: cell-based, human; conditions: 1, 5, 10 μg/ml, 1 h before 100 mM alcohol for 24 h; dose-dependent; effect equivalent to curcumin 10 μg/ml
Description: (§1) A currently available test kit (Randox Laboratories, Antrim, UK) is applied to test the concentration of culture solution after cultivation of HepG2 cells as well as the concentration of ALT and AST in mouse serum. In brief, the experiment is designed to obtain the culture solution after cultivation of HepG2 cells and the serum of experimental mouse by the recommended test procedures.
(§2) The aforementioned HepG2 cells cultivated normally are grouped, and then separately cultivated 1 h together with 0, 1, 5, 10 μg/ml lucidone (0 μg/ml, negative control group) or 10 μg/ml curcumin (curcumin, a known antioxidation compound, taken as a positive control group), and then alcohol (100 mM) is added for 24 h cultivation to stimulate oxidation stress. The experiment groups and control groups are configured in Table 1:
(§3) The content of ALT, AST and tumor necrosis factor-α (TNF-α) in the tested culture solution of HepG2 cells is measured (refer to preferred embodiment 1 [test of ALT and AST concentration] and [measurement of tumor necrosis factor-α ]).

[2] = system: HO-1; test: HO-1 protein expression in HepG2 cells (Western blotting); assay type: cell-based, human; conditions: lucidone 1, 5, 10 μg/ml or curcumin 10 μg/ml, with 100 mM alcohol
[3] = system: reactive oxygen species; test: Accumulation of reactive oxygen species in alcohol-treated HepG2 cells (DCF-DA); assay type: cell-based, human; conditions: 1, 5, 10 μg/ml, 1 h before 100 mM alcohol for 24 h; dose-dependent; effect equivalent to curcumin 10 μg/ml
Description: A currently available DCF-DA (dihydrodichloro-fluorescein diacetate; Sigma, USA) is used to monitor the accumulation of reactive oxygen species (ROS) in cells. In brief, the cells (1×10^7) are wetted by phosphate buffer solution, and then added into 10 μm DCF-DA for 4 h cultivation at 37° C., and then fluorescence spectrophotometer is used to measure the fluorescence (488 nm/530 nm).
as §2
The content of reactive oxygen species and nitric oxide in the tested culture solution of HepG2 cells is measured (refer to preferred embodiment 1 [Test of accumulation of reactive oxygen species in cells] and [Griess nitrite test]).
FIG. 3A depicts the content of reactive oxygen species of HepG2 cells in various groups, of which the fluorescence strength of DCF-DA indicates the content of reactive oxygen species. FIG. 3B depicts the generation of nitric oxide of HepG2 cells in various groups, of which nitrite generation indicates the generation of nitric oxide.

[4] = system: mouse suffered by hepatitis arising from alcohol; test: Content of ALT, AST, nitric oxide and TNF-α in serum, mouse model of hepatitis arising from alcohol; assay type: in vivo; conditions: lucidone 100 mg/Kg/day i.p. 7 d, mean ± SD
Source text: (§4) The experimental mouse is selected from 4-week male mouse of ICR family (25±5 g) in Charles River (Taipei, Taiwan). Prior to the experiment, the experimental mouse will be bred for at least 1 week in constant temperature lab conditions wherein unlimited feedstock and water are supplied. All animals shall be governed by the Guide for the Care and Use of Laboratory Animals and relevant animal protection acts of Taiwan, and approved by local ethics commissions. 80% alcohol or lucidone is applied to aforementioned experimental mouse (1 mL/Kg) by following methods: alcohol is applied orally, or by intra-peritoneal injection, or alcohol and lucidone are applied orally, or by intra-peritoneal injection.
as §1
(§5) According to the principle of Griess reaction, nitrite accumulated from the supernatant liquid cultivated by cells and mouse serum is measured to obtain indirectly the generation of nitric oxide. The supernatant liquid cultivated by cells and tumor necrosis factor-α in the serum are measured using the currently available human TNF-αELISA kit. In brief, aforementioned HepG2 cells of […] are separately cultivated in 96-well plate, and then added with lucidone and alcohol to cultivate them for 24 h. Next, the culture solution is diluted by the work reagent of aforementioned kit by a percentage of 1:2. Then, every 100 μl diluted culture solution is subject to ELISA reaction as per the operating instruction of aforementioned kit, and then a spectrometer is used to detect the absorbance at wavelength 450 nm so as to judge the content of tumor necrosis factor-α; in the mouse experiment, the mouse serum is diluted properly and then the content of tumor necrosis factor-α is tested as per the operating instruction of aforementioned kit.
(§6) The aforementioned mouse are grouped and then applied with lucidone for 7 d at a dose of 100 mg/Kg/day by means of intra-peritoneal injection, and at the 7th day, applied with lucidone and then applied with 80% alcohol orally or by intra-peritoneal injection at a dose of 1 ml/Kg, one time every 12 h with 3 doses; of which, the mouse of the control group is fed with 1% DMSO dissolved in saline solution.
Take out the serum of mouse suffered by hepatitis arising from alcohol as per aforementioned experimental design, and determine the content of ALT, AST, nitric oxide and TNF-α by the experimental methods in preferred embodiment 1.

[5] = system: Nrf-2; test: Nrf-2 translocation in HepG2 cells (Western blotting of cytoplasm and nuclear extracts); assay type: cell-based, human; conditions: 1, 5, 10 μg/ml with 100 mM alcohol
Description: The cytosolic extracts and nuclear extracts are prepared as per the known test procedures using the currently available test kit (protocol #78833 Nuclear and Cytoplasmic Extraction Reagent kit). And, the common protein assay reagent (Bio-Rad) is used to measure the concentration of protein.
Western blotting is implemented as per the known test procedures in the relevant field, of which said anti-body and enhanced chemiluminescene regents (ECL, Pierce) are used for immunoblotting, and then an imaging device (Viogene Biotek, Sunnyvale, Calif., USA) is used for observing the results.
as §2, with “The experiment groups and control groups are configured in Table 1:” left out
HO-1 is one of ARE-driven antioxidant genes. […] In this experiment, the content of Nrf-2 in cytoplasm and nuclear extracts of tested HepG2 cells, as well as the bonding activity of Nrf-2 and ARE is measured (refer to relevant experimental methods in preferred embodiment 1).
Said content refers to the color strength of the result from Western blotting calculated by typical software in the field.

[6] = system: nitric oxide; test: Griess nitrite test, nitric oxide generation in alcohol-treated HepG2 cells; assay type: cell-based, human; conditions: 1, 5, 10 μg/ml, 1 h before 100 mM alcohol for 24 h; dose-dependent; effect equivalent to curcumin 10 μg/ml
Description: as §5, with “aforementioned kit. […]” for “aforementioned kit.”
The content of reactive oxygen species and nitric oxide in the tested culture solution of HepG2 cells is measured (refer to preferred embodiment 1 [Test of accumulation of reactive oxygen species in cells] and [Griess nitrite test]). […]

[7] = system: HO-1; test: HO-1 mRNA expression in HepG2 cells (real-time PCR); assay type: cell-based, human; conditions: lucidone 1, 5, 10 μg/ml or curcumin 10 μg/ml, with 100 mM alcohol, standardized to β-actin
Description: Trizol reagent (Invitrogen Life Technologies, Carlsbad, Calif., USA) is used to extract total RNA of cells. One step RT-PCR is used for reverse transcription of mRNA of HO-1 and β-actin into cDNA, then real time-PCR (Applied Biosystems) is applied to real-time expression of HO-1 and β-actin.
Said real-time PCR is used to detect PCR products by combining DNA and SYBR Green. The thermal cycle is: 3 m at 96° C.; 1 m at 96° C. in 40 cycles, 30 s at 50° C. and 90 s at 72° C.

[8] = system: HepG2 cells; test: Glutathione content in alcohol-treated HepG2 cells; assay type: cell-based, human; conditions: lucidone 1, 5, 10 μg/ml or curcumin 10 μg/ml, 1 h before 100 mM alcohol for 24 h
Description: A currently available GSH-96-well plate colorimetric GSH assay kit, Oxis International, Foster City, Calif., USA) is used to measure the content of glutathione (GSH). In brief, 40 μl chromogenic reagent dissolved in acid is added into 40 μl non-protein hepatocyte lysate, and added with 40 μl NaOH (30%), 40 μl color developer and buffer solution to form a mixed solution. Next, the mixed solution is shaken gently, and placed in room temperature for 10 m. Finally, a spectrometer (ELISA microplate reader, μQuant, Bio-Tek instruments, Inc., Winooski, Vt., USA) is used to detect the absorbance at wavelength 412 nm, and compared with a GSH absorbance curve of known concentration to judge the content of GSH. Similarly, the content of glutathione in the experimental mouseserum can be measured.

[9] = system: Nrf-2 and ARE; test: Bonding activity of Nrf-2 and ARE in HepG2 cells (EMSA); assay type: cell-based, human; conditions: 1, 5, 10 μg/ml with 100 mM alcohol, dose-dependent
[10] = system: HepG2 cells; test: Lipid peroxidation degree (MDA) in alcohol-treated HepG2 cells; assay type: cell-based, human; conditions: lucidone 1, 5, 10 μg/ml or curcumin 10 μg/ml, 1 h before 100 mM alcohol for 24 h
[11] = system: mouse suffered by hepatitis arising from alcohol; test: Content of GSH and MDA in serum and tissue, mouse model of hepatitis arising from alcohol; assay type: in vivo; conditions: lucidone 100 mg/Kg/day i.p. 7 d, mean ± SD; for GSH in tissue / MDA in tissue: liver tissue
Source text: as §4
A currently available lipid peroxidation test kit (Oxford Biomedical Research, Oxford, Mich., USA) is used to measure the degree of lipid peroxidation. In brief, the cells are lysed by 200 μl cell lysis buffer. Then, 140 μl cell lysate is mixed with 455 μl N-methyl-2-phenylindole dissolved in acetonitrile and 105 μl acid (HCL, 37%), and placed in 45° C. for 60 m. malondialdehyde (MDA) is a main product of polyunsaturated fatty acid lysed by peroxidation. In this experiment, N-methyl-2-phenylindole is used to generate stable chromophore through reaction with MDA, and the formation of MDA is measured under maximum absorbance wavelength 535 nm as an index of measuring lipid peroxidation. Similarly, the degree of lipid peroxidation in the serum of experimental mouse can be measured.
A currently available GSH-96-well plate colorimetric GSH assay kit, Oxis International, Foster City, Calif., USA) is used to measure the content of glutathione (GSH). In brief, 40 μl chromogenic reagent dissolved in acid is added into 40 μl non-protein hepatocyte lysate, and added with 40 μl NaOH (30%), 40 μl color developer and buffer solution to form a mixed solution. Next, the mixed solution is shaken gently, and placed in room temperature for 10 m. […] Similarly, the content of glutathione in the experimental mouseserum can be measured.
as §6
Take out the serum and liver tissue of mouse suffered by hepatitis arising from alcohol as per aforementioned experimental design, and measure GSH content and lipid peroxidation degree as per the experimental methods in preferred embodiment 1.

[12] = system: tumor necrosis factor-α; test: Content of TNF-α in culture solution of alcohol-treated HepG2 cells (ELISA); assay type: cell-based, human; conditions: 1, 5, 10 μg/ml, 1 h before 100 mM alcohol for 24 h; dose-dependent; effect equivalent to curcumin 10 μg/ml
Description: as §5, with “aforementioned kit. […]” for “aforementioned kit.”
as §3

[13] = intra-peritoneal injection alcohol (80%, 1 ml/Kg, 3 doses every 12 h)
[14] = orally taking alcohol (80%, 1 ml/Kg, 3 doses every 12 h)
[15] = intra-peritoneal injection alcohol

COC1=CC(=O)C(=C(O)/C=C/c2ccccc2)C1=O [lucidone]
content of ALT in cell culture solution [1]: reduced the phenomenon of growing content | content of AST in cell culture solution [1]: reduced the phenomenon of growing content | expression of HO-1 protein in the cells [2]: substantial increase | generation of reactive oxygen species caused by alcohol [3]: reduced the generation | ALT in serum [4, 13]: 103.0 ± 65.6 U/L | AST in serum [4, 13]: 139.6 ± 12.2 U/L | TNF-α in serum [4, 13]: 3.91 ± 0.28 ng/mL | nitric oxide in serum [4, 13]: 102.3 ± 0.52 nM/mL | ALT in serum [4, 14]: 875.4 ± 57.2 U/L | AST in serum [4, 14]: 508.0 ± 31.7 U/L | TNF-α in serum [4, 14]: 10.0 ± 0.28 ng/mL | nitric oxide in serum [4, 14]: 370.6 ± 0.53 nM/mL | Nrf-2 translocation (Nrf-2 content in nucleus) [5]: facilitate Nrf-2 translocation | generation of nitric oxide caused by alcohol (nitrite) [6]: reduced the generation | expression of HO-1 mRNA in the cells [7]: substantial increase | decline of GSH concentration in the cells caused by alcohol [8]: can be avoided | bonding activity of Nrf-2 and ARE [9]: improve significantly the bonding activity | lipid peroxidation in the cells caused by alcohol [10]: reduce greatly | GSH in tissue [11, 15]: 173.9 ± 58.5 nmol/mg of protein | MDA in tissue [11, 15]: 20.9 ± 0.71 nmol/mg of protein | GSH in serum [11, 15]: 42.9 ± 1.8 nmol/mg of protein | MDA in serum [11, 15]: 16.2 ± 0.77 nmol/mg of protein | GSH in tissue ([11]; orally taking alcohol): 261.2 ± 11.1 nmol/mg of protein | MDA in tissue ([11]; orally taking alcohol): 69.2 ± 0.67 nmol/mg of protein | GSH in serum ([11]; orally taking alcohol): 30.5 ± 1.0 nmol/mg of protein | MDA in serum ([11]; orally taking alcohol): 19.5 ± 0.41 nmol/mg of protein | content of TNF-α in cell culture solution [12]: reduced the phenomenon of growing content

COc1cc(/C=C/C(=O)CC(=O)/C=C/c2ccc(O)c(OC)c2)ccc1O [curcumin, reference compound]
expression of HO-1 protein in the cells [2]: substantial increase | expression of HO-1 mRNA in the cells [7]: substantial increase | decline of GSH concentration in the cells caused by alcohol [8]: can be avoided | lipid peroxidation in the cells caused by alcohol [10]: reduce greatly

Source: US20110319495A1, “Pharmaceutical Composition for Hepatitis Treatment and Applications” (priority 2010, published 2011)
